Values after ≈ are worked out from the molar mass of the structure shown.
Assays:
[1] = system: Nippostrongylus brasiliensis; assay: Test 1: activity against roundworms in rats, treatment 6 days after infection (patent infection), worm counts 48 hours after treatment; type: in vivo
Experimental: Test 1 - Rats were infected with 100 Nippostrongylus brasiliensis larvae each, by the subcutaneous route. After 6 days, when the infection was patent, the rats were randomised and alloted to groups of 10 animals each, ready for treatment. One group was used for each dose level of the test compound and, in each experiment, one group was left untreated as a control. All the rats were killed for post-mortem worm counts 48 hours after treatment. The activity, expressed in terms of the percentage reduction in mean worm load of the treated group compared with the untreated group, is shown in Table I.

[2] = system: Nippostrongylus brasiliensis; assay: Test 2: activity against roundworms in rats, treatment 24 hours after infection, worm counts 6 days after dosing; type: in vivo; settings: rats, Test 2, 1000 mg/kg oral; for inhibition in vivo at 1000 mg/kg: Nippostrongylus brasiliensis, 144 h, read-out: Percentage reduction in N.brasiliensis load
Experimental: Test 2 -- Rats were infected with 100 Nippostrongylus brasiliensis larvae each, by the subcutaneous route. After 24 hours the rats were randomised and allotted to groups of 5 animals each, ready for treatment. Doses of the test compound were then administered to each group by the oral, subcutaneous and intraperitoneal routes respectively, one group of 10 animals being left untreated as a control. All the rats were killed for post-mortem worm counts 6 days after dosing. The activities, expressed in terms of the percentage reductions in mean worm load of the treated groups or damage to the worms compared with the untreated control group, are given below in Table I.

Haemonchus contortus [3] = assay: Activity against 4th larval stages in lambs, oral treatment (Table II); type: in vivo; settings: 100 mg/kg oral
Experimental: (§1) i. 9 Worm-free lambs were each infected with H.contortus (approximately 9,000), T. axei (approximately 7,000) and T. colubriformis (approximately 12,000) infective larvae. After 7 days, 4 lambs were treated orally with 100 mg/kg animal body weight of the 2 test compounds, i.e. 2 lambs per compound, against the 4th larval stages of the worms. 23 Days after infection, all 9 lambs were killed for post-mortem worm counts and the burdens of each worm species in the 4 treated animals compared with those in the remaining 5 untreated control animals.

Trichostrongylus axei [4] = assay: as above; type: in vivo; settings: 100 mg/kg oral
Experimental: as §1

[5] = system: Trichostrongylus colubriformis; assay: as above; type: in vivo; settings: 100 mg/kg oral
Experimental: as §1

Haemonchus contortus [6] = assay: Activity against mature adult stages in lambs, oral treatment (Table III); type: in vivo; settings: 120 h, 15 mg/kg oral, read-out: Mean percentage reduction in worm burdens, H.contortus
Experimental: (§2) ii. 20 Worm-free lambs were each infected with H. contortus (approximately 5,600), T. axei (approximately 9,300) and T. colubriformis (approximately 10,000) infective larvae. After 22 days, 16 lambs were treated orally with 15 mg/kg animal body weight of the 8 test compounds, i.e. 2 lambs per compound, against the mature adult stages of the worms. 27 Days after infection, all 20 lambs were killed for post-mortem worm counts and the burden of each worm species in the 16 treated animals compared with those in the remaining 4 untreated control animals.

Trichostrongylus axei [7] = assay: as above; type: in vivo; settings: 120 h, 15 mg/kg oral, read-out: Mean percentage reduction in worm burdens, T.axei
Experimental: as §2

[8] = system: Trichostrongylus colubriformis; assay: as above; type: in vivo; settings: 120 h, 15 mg/kg oral, read-out: Mean percentage reduction in worm burdens, T.colubriformis
Experimental: as §2

[9] = system: Nippostrongylus brasiliensis eggs; assay: In vitro activity against roundworms (egg hatching and larvae); type: cell-based; settings: 96 h, tested at 100, 10, 1 and 0.1 μg/ml, inhibited or delayed hatching of eggs, or killed, retarded growth or reduced activity of larvae during 4 days, read-out: M.I.C. (minimum inhibitory concentration)
Experimental: Compounds of formula I were tested at concentrations of 100 μg/ml, 10 μg/ml, 1 μg/ml and 0.1 μg/ml in small glass containers. If the compound was not soluble in water, a volatile organic medium, e.g. acetone, chloroform, ethanol or methanol was used. An amount of material appropriate for each final concentration was measured and placed in duplicate test containers and if an organic solvent was used it was allowed to evaporate completely. Nippostrongylus brasiliensis eggs were recovered by saturated saline centrifugal flotation from the faeces of rats heavily infected with third stage larvae six days previously. They were washed several times in water and suspended in water in a suitable concentration. From 25-50 eggs were placed in each container and the final volume was made up by the addition of a very dilute aqueous suspension of mouse faeces which served as the growth medium. The minimum inhibitory concentrations of each compound (M.I.C.), shown in the following Table V was the minimum concentration in μg/ml total liquid volume at which it inhibited or delayed hatching of eggs, or at which it killed, retarded growth or reduced activity of larvae during the 4 days after beginning the test.

[10] = system: naturally acquired strongyle infections; assay: Effect on faecal egg output in naturally infected sheep (ewes); type: in vivo, O. circumcincta, H. contortus and Cooperia spp.; settings: 50 mg/kg oral
Experimental: Faecal material from sheep with naturally acquired strongyle infections was incubated for 7 days at 27° C. followed by identification of the infective larvae present. Amongst those species present were O. circumcincta, H. contortus and Cooperia spp.
Egg counts were carried out on individual samples of faeces taken from the animals two and one day previous to dosings.
Egg counts were made using the McMaster technique. If a count by this technique was negative, a positive/negative egg flotation determination was made.
A group of 3 ewes was treated orally with 50 mg/kg animal body weight of test compound and further egg counts made at intervals for 3 weeks after treatment.

[11] = system: influenza virus type A2 /Hong Kong/5/68; type: in vivo; settings: mice, 250 mg/kg oral 3 hours before and 1 hour after infection; pooled lungs 24 hours after infection; greatest dilution producing agglutination

| SMILES | worm damage ([1]; Test 1, 500 mg/kg oral) | inhibition in vivo at 1000 mg/kg [2] [%] | worm damage [2] | inhibition in vivo at 15 mg/kg (Haemonchus contortus [6]) [%] | inhibition in vivo at 15 mg/kg (Trichostrongylus axei [7]) [%] | inhibition in vivo at 15 mg/kg [8] [%] | MIC [9] [µg/mL] | other results |
| --- | --- | --- | --- | --- | --- | --- | --- | --- |
| CCCCc1ccc(NC(=S)NC(=O)OC)c(NC(C)=O)c1 [1-methoxycarbonyl-3-(2-acetamido-4-n-butylphenyl)thiourea] | worm damage | 98 | worm damage | 76.7 | 66.9 | 6.7 | 0.1 (≈ 0.309 µM) | Mean percentage reduction in worm burdens, H.contortus (Haemonchus contortus [3]): 99.9%; Mean percentage reduction in worm burdens, T.axei (Trichostrongylus axei [4]): 99.5%; Mean percentage reduction in worm burdens, T.colubriformis [5]: 100% |
| CCCCc1ccc(NC(C)=O)c(NC(=S)NC(=O)OC)c1 [1-methoxycarbonyl-3-(2-acetamido-5-n-butylphenyl)thiourea] | – | 99 | worm damage | 82.1 | 98.2 | 95 | 0.1 (≈ 0.309 µM) | worm damage ([1]; Test 1, 1000 mg/kg oral): worm damage |
| COC(=O)NC(=S)Nc1ccc(NC(=O)OC(C)C)cc1N [1-methoxycarbonyl-3-(2-amino-4-isopropoxycarbonylaminophenyl)thiourea] | worm damage | 100 | – | 97.7 | 94.6 | 83 | 100 (≈ 306 µM) | – |
| CCCCc1ccc(NC(=S)NC(=O)OC)c(N)c1 [1-methoxycarbonyl-3-(2-amino-4-n-butylphenyl)thiourea] | worm damage | – | – | – | – | – | 0.1 (≈ 0.355 µM) | inhibition in vivo at 500 mg/kg ([1]; Nippostrongylus brasiliensis, po, 48 h, Test 1, 500 mg/kg oral, read-out: Percentage reduction in N.brasiliensis load): 75%; Mean percentage reduction in worm burdens, H.contortus (Haemonchus contortus [3]): 100%; Mean percentage reduction in worm burdens, T.axei (Trichostrongylus axei [4]): 99.5%; Mean percentage reduction in worm burdens, T.colubriformis [5]: 100% |
| COC(=O)NC(=S)Nc1ccccc1N [1-methoxycarbonyl-3-(2-aminophenyl)thiourea] | – | – | – | – | – | – | 0.1 (≈ 0.444 µM) | Percentage reduction in N.brasiliensis load ([1]; Test 1, 1000 mg/kg oral): 99%; worm damage ([1]; Test 1, 1000 mg/kg oral): worm damage; Mean faecal egg count/gm. faeces ([10]; 1 day after treatment): 450 /gm. faeces; Mean faecal egg count/gm. faeces ([10]; 2 days before treatment (baseline)): 250 /gm. faeces; Mean faecal egg count/gm. faeces ([10]; 4 days after treatment): 250 /gm. faeces; Mean faecal egg count/gm. faeces ([10]; 6 days after treatment): 50 /gm. faeces; Mean faecal egg count/gm. faeces ([10]; 8 days after treatment): 134 /gm. faeces; Mean faecal egg count/gm. faeces ([10]; 15 days after treatment): 75 /gm. faeces; Mean faecal egg count/gm. faeces ([10]; 18 days after treatment): 100 /gm. faeces; Mean faecal egg count/gm. faeces ([10]; 20 days after treatment): 50 /gm. faeces; Mean faecal egg count/gm. faeces ([10]; 22 days after treatment): 50 /gm. faeces |
| COC(=O)NC(=S)Nc1ccc(NC(=O)OC(C)C)cc1NC=O [1-methoxycarbonyl-3-(2-formamido-4-isopropoxycarbonylaminophenyl)thiourea] | – | – | – | 40.1 | 70.8 | 29.6 | – | – |
| CCCCc1ccc(NC(=S)NC(=O)OC)c(NC(=O)C2CC2)c1 [1-methoxycarbonyl-3-(4-n-butyl-2-cycloproplycarbonamidophenyl)thiourea] | – | – | – | 58.4 | 57.6 | 27.1 | 0.1 (≈ 0.286 µM) | – |
| CCCCc1ccc(NC(=S)NC(=O)OC)c(NC=O)c1 [1-methoxycarbonyl-3-(4-n-butyl-2-formamidophenyl)thiourea] | – | – | – | 84.3 | 84.2 | 36.9 | 0.1 (≈ 0.323 µM) | – |
| CCCCc1ccc(NC(=O)OCC)c(NC(=S)NC(=O)OC)c1 [1-methoxycarbonyl-3-(5-n-butyl-2-ethoxycarbonylaminophenyl)thiourea] | – | 96 | worm damage | 79.6 | 78.6 | 40.1 | 10 (≈ 28.3 µM) | Haemagglutinin titre-treated animals [11]: 1/64 |
